{
  "source": "patent US11395819B1",
  "about": "“Antiviral and virucidal lung nebulizer compositions and related treatment methods” (priority 2021, dated 2022)",
  "origin": "cited, not measured here",
  "key": {"[1]": {"tested_on": "divergent influenza A strains and influenza B strain"}, "[2]": {"tested_on": "avian H7N9 influenza virus", "conditions": "mice"}, "[3]": {"conditions": "given by inhalation"}},
  "note": "Counter-ions that a name gives are not always drawn.",
  "data": [
    {"smiles": "CN(C)CCC(c1ccc(Cl)cc1)c1ccccn1", "note": "(stereo not drawn) [Chlorpheniramine, chlorpheniramine maleate]", "values": [
      {"measurement": "inhibitory activity against influenza", "setting": "[1]", "result": "potent inhibitory activity"},
      {"measurement": "protection from fatal challenge", "setting": "[2]", "result": "protects mice from fatal challenge"},
      {"measurement": "bronchodilation", "setting": "[3]", "result": "significant bronchodilation"}
    ]}
  ]
}
